According to patent US4162938A, “Antibiotic compound” (Bristol-Myers Company, priority 1978, dated 1979):
Converted amounts (≈) assume the structure as drawn. Where two headings read alike, the source gives them in different places.

Columns and labels:
L-1210 leukemia = assay type: in vivo, mouse (BDF1 female)
Procedure: The compound of the present invention was also tested against the transplantable mouse tumor L-1210 lymphatic leukemia which is responsive to anthracycline-type antitumor agents.
Tumor inoculum: 10^6 ascites cells implanted i.p.
Host: BDF1 .female. mice
Evaluation: MST = median survival time
Effect: % T/C = MST treated/MST control × 100
Criteria: T/C ≥ 125 considered significant antitumor effect.

[1] = test system: Trichophyton mentagrophytes A-9870; assay: MIC, standard tube dilution procedure; assay type: cell-based
Procedure: (§1) The in vitro minimum inhibitory concentrations (MIC) of rudolphomycin were determined for a number of microorganisms using the standard tube dilution procedure.

[2] = test system: Escherichia coli A-20341-1; assay: MIC, standard tube dilution procedure; assay type: cell-based
Procedure: as §1

[3] = test system: Serratia marcescens A-20019; assay: MIC, standard tube dilution procedure; assay type: cell-based
Procedure: as §1

Microsporum canis A-9872 = assay: MIC, standard tube dilution procedure; assay type: cell-based
Procedure: as §1

[4] = test system: Pseudomonas aeruginosa A-9843A; assay: MIC, standard tube dilution procedure; assay type: cell-based
Procedure: as §1

Candida albicans A-9540 = assay: MIC, standard tube dilution procedure; assay type: cell-based
Procedure: as §1

[5] = test system: Enterobacter cloacae A-9659; assay: MIC, standard tube dilution procedure; assay type: cell-based
Procedure: as §1

[6] = test system: Streptococcus pyogenes A-9604; assay: MIC, standard tube dilution procedure; assay type: cell-based
Procedure: as §1

[7] = test system: Cryptococcus neoformans A-15053; assay: MIC, standard tube dilution procedure; assay type: cell-based
Procedure: as §1

[8] = test system: Streptococcus faecalis A-20688; assay: MIC, standard tube dilution procedure; assay type: cell-based
Procedure: as §1

[9] = test system: Staphylococcus aureus A-9537; assay: MIC, standard tube dilution procedure; assay type: cell-based
Procedure: as §1

Proteus vulgaris A-9716 = assay: MIC, standard tube dilution procedure; assay type: cell-based
Procedure: as §1

Candida krusei A-15052 = assay: MIC, standard tube dilution procedure; assay type: cell-based
Procedure: as §1

Escherichia coli A-15119 = assay: MIC, standard tube dilution procedure; assay type: cell-based
Procedure: as §1

Proteus mirabilis A-9900 = assay: MIC, standard tube dilution procedure; assay type: cell-based
Procedure: as §1

[10] = test system: Candida tropicalis A-15051; assay: MIC, standard tube dilution procedure; assay type: cell-based
Procedure: as §1

[11] = test system: Staphylococcus aureus A-9606; assay: MIC, standard tube dilution procedure; assay type: cell-based
Procedure: as §1

[12] = test system: Streptococcus pneumoniae A-9585; assay: MIC, standard tube dilution procedure; assay type: cell-based
Procedure: as §1

[13] = test system: Klebsiella pneumoniae A-15130; assay: MIC, standard tube dilution procedure; assay type: cell-based
Procedure: as §1

L1210 mouse leukemia = assay: Activity of chromatographic bands on L1210 mouse leukemia system; assay type: in vivo; settings: Example 4 bands
[14] = Biological activity of chromatographic fractions of bohemic acid complex (test not specified); settings: Example 5, large scale LH-20
P388 mouse leukemia = assay: Activity of chromatographic bands on P388 mouse leukemia system; assay type: in vivo; settings: Example 4 bands
[15] = day 1 (1 inj.), 0.4 mg./kg./inj.
[16] = day 1 (1 inj.), 0.8 mg./kg./inj.
[17] = day 1 (1 inj.), 1.6 mg./kg./inj.
[18] = day 1 (1 inj.), 3.2 mg./kg./inj.
[19] = day 1 (1 inj.), 6.4 mg./kg./inj.
[20] = day 1 (1 inj.), 12.8 mg./kg./inj.
[21] = days 1, 4, 7 (3 inj.), 0.2 mg./kg./inj.
[22] = days 1, 4, 7 (3 inj.), 0.4 mg./kg./inj.
[23] = days 1, 4, 7 (3 inj.), 0.8 mg./kg./inj.
[24] = days 1, 4, 7 (3 inj.), 1.6 mg./kg./inj.
[25] = days 1, 4, 7 (3 inj.), 3.2 mg./kg./inj.
[26] = days 1, 4, 7 (3 inj.), 6.4 mg./kg./inj.
[27] = days 1→5 (5 inj.), 0.1 mg./kg./inj.
[28] = days 1→5 (5 inj.), 0.2 mg./kg./inj.
[29] = days 1→5 (5 inj.), 0.4 mg./kg./inj.
[30] = days 1→5 (5 inj.), 0.8 mg./kg./inj.
[31] = days 1→5 (5 inj.), 1.6 mg./kg./inj.
[32] = days 1→5 (5 inj.), 3.2 mg./kg./inj.
[33] = days 1→9 (9 inj.), 0.05 mg./kg./inj.
[34] = days 1→9 (9 inj.), 0.1 mg./kg./inj.
[35] = days 1→9 (9 inj.), 0.2 mg./kg./inj.
[36] = days 1→9 (9 inj.), 0.4 mg./kg./inj.
[37] = days 1→9 (9 inj.), 0.8 mg./kg./inj.
[38] = days 1→9 (9 inj.), 1.6 mg./kg./inj.

For `CC[C@@]1(O)C[C@H](O[C@H]2C[C@H](N(C)C)[C@H](O[C@H]3C[C@H](O)[C@H](O[C@@H]4O[C@@H](C)C(=O)C=C4N)[C@@H](C)O3)[C@@H](C)O2)c2c(cc3c(c2O)C(=O)c2c(O)ccc(O)c2C3=O)[C@H]1C(=O)OC` [Rudolphomycin], which “MST % T/C” value (L-1210 leukemia; [15]) is on record?
Its value is 114%.

And the “MST (median survival time)” value (L-1210 leukemia; [15])?
Its value is 8.0 days.

And the “MST % T/C” value (L-1210 leukemia; [16])?
Its value is 114%.

What about the “MST (median survival time)” value (L-1210 leukemia; [16]) of the same compound?
The value was 8.0 days.

What about the “MST % T/C” value (L-1210 leukemia; [17]) of the same compound?
The value was 114%.

What about the “MST (median survival time)” value (L-1210 leukemia; [17]) of the same compound?
Its value is 8.0 days.

What about the “MST % T/C” value (L-1210 leukemia; [18]) of the same compound?
The value was 143%.

And the “MST (median survival time)” value (L-1210 leukemia; [18])?
Its value is 10.0 days.

And the “MST % T/C” value (L-1210 leukemia; [19])?
Its value is 143%.

And the “MST (median survival time)” value (L-1210 leukemia; [19])?
Its value is 10.0 days.

And the “MST % T/C” value (L-1210 leukemia; [20])?
The value was 143%.

What about the “MST (median survival time)” value (L-1210 leukemia; [20]) of the same compound?
The value was 10.0 days.

And the “MST % T/C” value (L-1210 leukemia; [21])?
Its value is 114%.

What about the “MST (median survival time)” value (L-1210 leukemia; [21]) of the same compound?
The value was 8.0 days.

What about the “MST % T/C” value (L-1210 leukemia; [22]) of the same compound?
The value was 114%.

And the “MST (median survival time)” value (L-1210 leukemia; [22])?
Its value is 8.0 days.

And the “MST % T/C” value (L-1210 leukemia; [23])?
Its value is 136%.

What about the “MST (median survival time)” value (L-1210 leukemia; [23]) of the same compound?
Its value is 9.5 days.

And the “MST % T/C” value (L-1210 leukemia; [24])?
The value was 143%.

And the “MST (median survival time)” value (L-1210 leukemia; [24])?
The value was 10.0 days.

What about the “MST % T/C” value (L-1210 leukemia; [25]) of the same compound?
Its value is 100%.

What about the “MST (median survival time)” value (L-1210 leukemia; [25]) of the same compound?
Its value is 7.0 days.

What about the “MST % T/C” value (L-1210 leukemia; [26]) of the same compound?
The value was 129%.

What about the “MST (median survival time)” value (L-1210 leukemia; [26]) of the same compound?
Its value is 9.0 days.

What about the “MST % T/C” value (L-1210 leukemia; [27]) of the same compound?
Its value is 114%.

And the “MST (median survival time)” value (L-1210 leukemia; [27])?
The value was 8.0 days.

What about the “MST % T/C” value (L-1210 leukemia; [28]) of the same compound?
Its value is 129%.

And the “MST (median survival time)” value (L-1210 leukemia; [28])?
Its value is 9.0 days.

What about the “MST % T/C” value (L-1210 leukemia; [29]) of the same compound?
The value was 129%.

What about the “MST (median survival time)” value (L-1210 leukemia; [29]) of the same compound?
The value was 9.0 days.

What about the “MST % T/C” value (L-1210 leukemia; [30]) of the same compound?
Its value is 143%.

What about the “MST (median survival time)” value (L-1210 leukemia; [30]) of the same compound?
Its value is 10.0 days.

And the “MST % T/C” value (L-1210 leukemia; [31])?
Its value is 129%.

What about the “MST (median survival time)” value (L-1210 leukemia; [31]) of the same compound?
Its value is 9.0 days.

What about the “MST % T/C” value (L-1210 leukemia; [32]) of the same compound?
Its value is 129%.

What about the “MST (median survival time)” value (L-1210 leukemia; [32]) of the same compound?
Its value is 9.0 days.

What about the “MST % T/C” value (L-1210 leukemia; [33]) of the same compound?
The value was 114%.

And the “MST (median survival time)” value (L-1210 leukemia; [33])?
Its value is 8.0 days.

And the “MST % T/C” value (L-1210 leukemia; [34])?
Its value is 107%.

And the “MST (median survival time)” value (L-1210 leukemia; [34])?
The value was 7.5 days.

And the “MST % T/C” value (L-1210 leukemia; [35])?
Its value is 129%.

And the “MST (median survival time)” value (L-1210 leukemia; [35])?
The value was 9.0 days.

And the “MST % T/C” value (L-1210 leukemia; [36])?
The value was 129%.

And the “MST (median survival time)” value (L-1210 leukemia; [36])?
The value was 9.0 days.

What about the “MST % T/C” value (L-1210 leukemia; [37]) of the same compound?
The value was 129%.

What about the “MST (median survival time)” value (L-1210 leukemia; [37]) of the same compound?
The value was 9.0 days.

And the “MST % T/C” value (L-1210 leukemia; [38])?
Its value is 107%.

And the “MST (median survival time)” value (L-1210 leukemia; [38])?
Its value is 7.5 days.

And the MIC [1]?
Its MIC is greater than 125 µg/mL.

And the MIC [2]?
Its MIC is greater than 63 µg/mL.

What about the MIC [3] of the same compound?
The MIC was greater than 63 µg/mL.

And the MIC (Microsporum canis A-9872)?
Its MIC is greater than 125 µg/mL.

What about the MIC [4] of the same compound?
Its MIC is greater than 63 µg/mL.

And the MIC (Candida albicans A-9540)?
Its MIC is greater than 125 µg/mL.

What about the MIC [5] of the same compound?
Its MIC is greater than 63 µg/mL.

And the MIC [6]?
Its MIC is 0.5 µg/mL (≈ 0.595 µM).

What about the MIC [7] of the same compound?
The MIC was 63 µg/mL (≈ 74.9 µM).

And the MIC [8]?
The MIC was 4 µg/mL (≈ 4.76 µM).

And the MIC [9]?
The MIC was 2 µg/mL (≈ 2.38 µM).

What about the MIC (Proteus vulgaris A-9716) of the same compound?
Its MIC is greater than 63 µg/mL.

And the MIC (Candida krusei A-15052)?
The MIC was greater than 125 µg/mL.

And the MIC (Escherichia coli A-15119)?
The MIC was greater than 63 µg/mL.

And the MIC (Proteus mirabilis A-9900)?
Its MIC is greater than 63 µg/mL.

And the MIC [10]?
The MIC was greater than 125 µg/mL.

What about the MIC [11] of the same compound?
Its MIC is 8 µg/mL (≈ 9.51 µM).

What about the MIC [12] of the same compound?
The MIC was 0.25 µg/mL (≈ 0.297 µM).

What about the MIC [13] of the same compound?
Its MIC is greater than 63 µg/mL.

For `CC[C@@]1(O)C[C@H](O[C@H]2C[C@H](N(C)C)[C@H](O[C@H]3C[C@H](O)[C@H](O)[C@H](C)O3)[C@H](C)O2)c2c(cc3c(c2O)C(=O)c2c(O)ccc(O)c2C3=O)[C@H]1C(=O)OC` [musettamycin], which “activity on L1210 mouse leukemia” value (L1210 mouse leukemia) is on record?
The value was “highly active”.

What about the “activity of chromatographic fraction” value [14] of the same compound?
The value was “active”.

And the “activity on P388 mouse leukemia” value (P388 mouse leukemia)?
Its value is “highly active”.
